Assay results: ChEMBL document CHEMBL1201862, “PubChem BioAssay data set” (2004)
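Results reflect a 48-hour exposure of cells in 96-well plates to compound at five concentrations. At the GI50, growth is halved.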 Active and inactive are the calls of the source. Cut-off read from the data, not from the text of the source: active = GI50 up to about 1.1 µM and inactive = higher.

Experiments:
Assay in all cases: NCI-60 cell line screen, 48 h
MOLT-4 = test system: MOLT-4
MDA-MB-231 = test system: MDA-MB-231
OVCAR-8 = test system: OVCAR-8
SK-MEL-28 = test system: SK-MEL-28
SW-620 = test system: SW-620
HCC 2998 = test system: HCC 2998
U-251 = test system: U-251
BT-549 = test system: BT-549
IGROV-1 = test system: IGROV-1
COLO 205 = test system: COLO 205
SK-MEL-2 = test system: SK-MEL-2
HOP-62 = test system: HOP-62
DU-145 = test system: DU-145
NCI-H23 = test system: NCI-H23
K562 = test system: K562
HCT-15 = test system: HCT-15
CAKI-1 = test system: CAKI-1
EKVX = test system: EKVX
T47D = test system: T47D
MDA-N = test system: MDA-N

| SMILES | GI50 (MOLT-4) | GI50 (MDA-MB-231) | GI50 (OVCAR-8) | GI50 (SK-MEL-28) | GI50 (SW-620) | GI50 (HCC 2998) | GI50 (U-251) | GI50 (BT-549) | GI50 (IGROV-1) | GI50 (COLO 205) | GI50 (SK-MEL-2) | GI50 (HOP-62) | GI50 (DU-145) | GI50 (NCI-H23) | GI50 (K562) | GI50 (HCT-15) | GI50 (CAKI-1) | GI50 (EKVX) | GI50 (T47D) | GI50 (MDA-N) |
| --- | --- | --- | --- | --- | --- | --- | --- | --- | --- | --- | --- | --- | --- | --- | --- | --- | --- | --- | --- | --- |
| CCCCn1cc(C(=O)O)c(=O)c2c3sccc3ccc21 | > 100 µM (inactive) | > 100 µM (inactive) | > 100 µM (inactive) | > 100 µM (inactive) | > 100 µM (inactive) | > 100 µM (inactive) | 6.73 µM (inactive) | > 100 µM (inactive) | > 100 µM (inactive) | > 100 µM (inactive) | > 100 µM (inactive) | > 100 µM (inactive) | > 100 µM (inactive) | > 100 µM (inactive) | > 100 µM (inactive) | 47 µM | > 100 µM (inactive) | > 100 µM (inactive) | > 100 µM (inactive) | > 100 µM (inactive) |
| COCOC1/C=C/CCCCC2=C(C)C=C(C1)O2 (stereo not given) | > 100 µM (inactive) | > 100 µM (inactive) | > 100 µM (inactive) | > 100 µM (inactive) | > 100 µM (inactive) | > 100 µM (inactive) | > 100 µM (inactive) | > 100 µM (inactive) | > 100 µM (inactive) | > 100 µM (inactive) | > 100 µM (inactive) | > 100 µM (inactive) | > 100 µM (inactive) | > 100 µM (inactive) | > 100 µM (inactive) | > 100 µM | > 100 µM (inactive) | > 100 µM (inactive) | > 100 µM (inactive) | > 100 µM (inactive) |
| Cc1ccc(S(=O)(=O)N2CCNCCN(S(=O)(=O)c3ccc(C)cc3)CCN(S(=O)(=O)c3ccc(C)cc3)CC2)cc1 | > 100 µM (inactive) | > 100 µM (inactive) | > 100 µM (inactive) | > 100 µM (inactive) | > 100 µM (inactive) | > 100 µM (inactive) | > 100 µM (inactive) | > 100 µM (inactive) | > 100 µM (inactive) | > 100 µM (inactive) | > 100 µM (inactive) | > 100 µM (inactive) | > 100 µM (inactive) | > 100 µM (inactive) | > 100 µM (inactive) | > 100 µM | > 100 µM (inactive) | > 100 µM (inactive) | > 100 µM (inactive) | > 100 µM (inactive) |
| COC(=O)C1=C(OC(=O)/C(=C/c2ccccc2)c2ccc([N+](=O)[O-])cc2)C(C(=O)OC)[C@@]2(O)[C@@H](C(=O)OC)[C@H](C)C[C@@H]1[C@@H]2C(=O)OC (stereo not given in full) | 3.53 µM (inactive) | > 100 µM (inactive) | > 100 µM (inactive) | > 100 µM (inactive) | > 100 µM (inactive) | > 100 µM (inactive) | > 100 µM (inactive) | 31.1 µM (inactive) | > 100 µM (inactive) | > 100 µM (inactive) | > 100 µM (inactive) | > 100 µM (inactive) | > 100 µM (inactive) | > 100 µM (inactive) | > 100 µM (inactive) | > 100 µM | > 100 µM (inactive) | > 100 µM (inactive) | > 100 µM (inactive) | > 100 µM (inactive) |
| CCC(C)C(C(=O)N/N=C1/SCC(=O)N1C)C(=O)N/N=C1/SCC(=O)N1C (stereo not given) | > 100 µM (inactive) | > 100 µM (inactive) | > 100 µM (inactive) | > 100 µM (inactive) | > 100 µM (inactive) | > 100 µM (inactive) | > 100 µM (inactive) | > 100 µM (inactive) | > 100 µM (inactive) | > 100 µM (inactive) | > 100 µM (inactive) | > 100 µM (inactive) | > 100 µM (inactive) | > 100 µM (inactive) | > 100 µM (inactive) | > 100 µM | > 100 µM (inactive) | > 100 µM (inactive) | > 100 µM (inactive) | > 100 µM (inactive) |
| O=C(c1ccccc1)N1C(=S)N(c2ccc([N+](=O)[O-])cc2)C(=N/c2ccccc2)/C1=N\c1ccccc1 | 19.5 µM (inactive) | 39.8 µM (inactive) | 65.5 µM (inactive) | > 100 µM (inactive) | > 100 µM (inactive) | > 100 µM (inactive) | 44.8 µM (inactive) | > 100 µM (inactive) | > 100 µM (inactive) | > 100 µM (inactive) | > 100 µM (inactive) | > 100 µM (inactive) | > 100 µM (inactive) | > 100 µM (inactive) | 30.1 µM (inactive) | 65.2 µM | > 100 µM (inactive) | > 100 µM (inactive) | > 100 µM (inactive) | 52.7 µM (inactive) |
| Oc1cc(Cc2ccccc2)c(Cc2ccccc2)cc1O | > 10 µM (inactive) | > 10 µM (inactive) | > 10 µM (inactive) | > 10 µM (inactive) | > 10 µM (inactive) | > 10 µM (inactive) | > 10 µM (inactive) | > 10 µM (inactive) | > 10 µM (inactive) | > 10 µM (inactive) | > 10 µM (inactive) | > 10 µM (inactive) | > 10 µM (inactive) | > 10 µM (inactive) | > 10 µM (inactive) | > 10 µM | > 10 µM (inactive) | > 10 µM (inactive) | > 10 µM (inactive) | 1.67 µM (inactive) |
